# Assay results published in patent publication US12357623B2, “Method for treating a disease or condition using a pyrazole compound or formulation thereof” (Rigel Pharmaceuticals, Inc., priority 2021, dated 2025).
# Experiments:
# [1] = Rat AUC and percent bioavailability of compound I-1 after administration of potential prodrugs; design: species or system Rats; conditions: in vivo, parent, iv 1 mg/kg, read-out: Rat AUClast of compound I-1
# [2] = DVS isotherm of spray-dried formulation and crystalline compound I-1; assay type: physicochemical; conditions: 25° C.; compared with the dispersion
# Protocol: (§1) FIG. 1 is a dynamic vapor sorption (DVS) plot of percent change in mass versus target relative humidity (RH), illustrating the change in mass of one embodiment of the disclosed spray-dried formulation at 25° C. under various relative humidity conditions. The plot provides two isotherms: 1 is the sorption plot, illustrating the change in mass with increasing relative humidity steps; and 2 is the desorption plot, illustrating the change in mass with decreasing relative humidity steps.
# as §1, with “FIG. 6” for “FIG. 1”, “a DVS” for “a dynamic vapor sorption (DVS)”, “relative humidity,” for “relative humidity (RH),”, “of a crystalline sample of compound I-1” for “of the disclosed spray-dried formulation”
# FIGS. 1-10 provide structural and stability data concerning the spray-dried formulation (FIGS. 1-5) and a crystalline sample of compound I-1 (FIGS. 6-10). FIGS. 1 and 6 provide DVS isotherm plots for the spray-dried formulation and crystalline compound, respectively.
structure (smiles),measurement,setting,value
"CCO[C@H]1CC[C@H](n2cc(NC(=O)c3csc(-c4cn[nH]c4)n3)c(-c3nc(F)ccc3F)n2)CC1 [Compound I-1, N-(3-(3,6-difluoropyridin-2-yl)-1-((1r, 4r)-4-ethoxycyclohexyl)-1H-pyrazol-4-yl)-2-(1H-pyrazol-4-yl)thiazole-4-carboxamide]",AUC(0-t),[1],1050 ng·h/mL
same,change in mass when exposed to higher relative humidity (DVS),[2],substantially smaller change in mass
